Test [1] relates to cyclooxygenase. The experiment in a line: ARBC whole cell cyclooxygenase assay (PGF2α formation in RBL-1 cells, RIA). It counts as cell-based, rat. The settings on record: @ 10 μM; inhibition of PGF2α formation, RBL-1 cells stimulated with calcium ionophore A23187. Here is the method: (§1) ARBL/ARBC Whole Cell 5-Lipoxygenase and Cyclooxygenase Assays The rat basophilic leukemia cell line (RBL-1) was obtained from the American Type Culture Collection (Rockville, Md.). Radioimmunoassay (RIA) kits of LTB4 and PGF2.sbsb.α were obtained from Amersham (Arlington Heights, Ill.) and Seragen (Boston, Mass.), respectively. RBL-1 cells are grown in suspension culture in Eagle's minimum essential medium supplemented with 12% fetal bovine serum at 37° C. in an incubator supplied with air-5% carbon dioxide. Cells are harvested by centrifugation. They are washed with cold phosphate buffered saline pH 7.4 (PBS; NaCl, 7.1 g; Na2 HPO4, 1.15 g; KH2 PO4, 0.2 g; and KCl, 0.2 g/l). Cells are finally suspended in PBS containing 1.0 mM calcium at a density of 2×10^6 cells/mi. Cells are incubated with and without test agent (in DMSO) (1% DMSO is without effect on arachidonic acid metabolism) for ten minutes at room temperature. Calcium ionophore A23187 (5 μM) is added and cells are incubated for seven minutes at 37° C. The reaction is stopped by chilling the tubes on ice for ten minutes. Cells are separated by centrifugation and the supernatant is stored at -20° Aliquots (100 μl) are analyzed for LTB4 and PGF2.sbsb.α using radioimmunoassay kits as provided by the supplier. […]

Test [2] relates to 5-lipoxygenase. The experiment in a line: ARBL whole cell 5-lipoxygenase assay (LTB4 formation in RBL-1 cells, RIA). It is filed as cell-based, rat. To be noted: @ 10 μM; inhibition of LTB4 formation, RBL-1 cells stimulated with calcium ionophore A23187. Here is the method:
as §1

As for `CSc1nnc(-c2nc(C(C)(C)C)c(O)c(C(C)(C)C)n2)s1` [Example 13, 5-[4,6-Bis(1,1-dimethylethyl)-5-hydroxy-2-pyrimidinyl]-2-thiomethoxy-1,3,4-3H-thiadiazole], the ARBC in test [1] is listed as 85%. Also, in test [2], the ARBL worked out at 93%.
On the same counts, the results for `CC(C)(C)c1nc(C#N)nc(C(C)(C)C)c1O` [Example 19, 4,6-Bis.(1,1-dimethylethyl)-5-hydroxy-2-pyrimidine carbonitrile] are 45% and 70%.
